Measurements taken from PubChem BioAssay (NCI).
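The compound was tested at five concentrations on cells cultured in 96-well plates, with a 48-hour exposure period. The concentration for 50% growth inhibition is given as GI50. TGI marks complete inhibition of growth.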

System: PC-3 prostate
Assay: NCI tumour cell line growth inhibition, 48 h

| SMILES | GI50 [µM] | TGI [µM] |
| --- | --- | --- |
| COc1ccc(OC(=O)O[C@H]2[C@H](O[C@H]3[C@@H](O)COC(O[C@H]4C[C@H]5[C@@H]6CC=C7C[C@@H](O)CC[C@]7(C)[C@H]6CC[C@]5(C)[C@H]4[C@H](C)C(=O)CCC(C)C)[C@@H]3OC(C)=O)OC[C@@H](O)[C@@H]2O)cc1 (some centres undefined) | 0.0103 | 10.1 |
| CC[C@H](C)[C@H](NC(=O)[C@H]1CCCCN1C)C(=O)N(C)[C@H](CCc1nc(C(=O)N[C@@H](Cc2ccccc2)C[C@H](C)C(=O)OC)cs1)C(C)C | 0.375 | > 25 |
| CCCNC(=S)N/N=C(\C)c1ccccn1 | 0.0471 | > 100 |
| COc1ccc(C2CC(=O)c3c(O)c(OC)c(OC)c(OC)c3O2)c(O)c1 (centres undefined) | 0.0707 | 20.8 |
| O=C(C[C@@H](C(=O)NCc1cccc(C(F)(F)F)c1)N1C(=O)[C@@H](N2C(=O)OC[C@@H]2c2ccccc2)[C@H]1/C=C/c1ccccc1)NC1CCN(Cc2ccccc2)CC1 | 6.06 | 20.8 |
| COC(=O)[C@]12CCC(C)(C)C[C@H]1C1=CC[C@@H]3[C@@]4(C)C/C(=C/c5cccnc5)C(=O)C(C)(C)[C@@H]4CC[C@@]3(C)[C@]1(C)CC2 | 2.37 | 10.4 |
| COc1cccc(N=Cc2c3ccccc3c(=O)n3c2oc2ccccc23)c1 | 3.81 | 39.6 |
| CC(C)(C)OC(=O)N(CCCN(CCn1c2c(c3ccccc3c1=O)C(=O)c1ccccc1-2)C(=O)OC(C)(C)C)CCn1c2c(c3ccccc3c1=O)C(=O)c1ccccc1-2 | > 50 | > 50 |
| NCCCCn1c2c(c3ccccc3c1=O)C(=O)c1ccccc1-2 | 0.193 | 2.16 |
| COc1cccc(NCc2nnc(Nc3ccc(Cl)cc3)c3ccccc23)c1 | 1.19 | 9.33 |
| Nc1nccc(-c2c(-c3ccc(F)cc3)ncn2CCCN2CCOCC2)n1 | > 25 | > 25 |
| CCCCNC(=O)NS(=O)(=O)c1ccc(N2N=C(c3ccc(C)cc3C)CC2c2ccc(N(C)C)cc2)cc1 (centres undefined) | 3.34 | > 100 |
| COc1ccc(/C(=N/Nc2ccc([N+](=O)[O-])cc2)Sc2cc(Cl)c(C)cc2S(N)(=O)=O)cc1 | 5.2 | 17.6 |
| COc1cc2c3c(n(CCCBr)c(=O)c2cc1OC)-c1ccc(NC(C)=O)cc1C3=O | 24.8 | > 100 |
| COc1cc2c3c(n(CCCCl)c(=O)c2cc1OC)-c1ccccc1C3=O | > 100 | > 100 |
| COc1cc(-c2c(C#N)c(N)n3c(nc4ccccc43)c2C#N)cc(Br)c1OC | 4.4 | > 100 |

| SMILES | GI50 [µM] | TGI [µM] |
| --- | --- | --- |
| COc1ccc2cc(C(=O)/C=C/c3cccc(OC)c3OC)ccc2c1 | 17.4 | 46.1 |
| CCCCC/C=C/C/C=C/CCCCCCCC1=NC(C)(C)CN1C(C)C | 1.7 | 3.41 |
| COc1cc(Cn2c(-c3ccccc3)cc3c2-c2oncc2CC3)cc(OC)c1OC | 3.62 | > 100 |
| Cc1cc(C)cc(Nc2cc(C)nc3nc(C(F)(F)F)nn23)c1 | > 100 | > 100 |
| CN1C(NC(=O)c2ccc(Cl)nc2)=NS(=O)(=O)c2cc(Cl)ccc21 | > 100 | > 100 |
| CC(C)CSc1nc(Nc2ccccc2)c(C#N)c(-c2ccc(F)cc2)n1 | 18.1 | 81.2 |
| COc1cc([C@@H]2c3cc4c(cc3C(O[C@@H]3O[C@@H]5CO[C@@H](c6cccs6)OC5[C@H](O)[C@H]3O)C3COC(=O)[C@@H]32)OCO4)cc(OC)c1O (some centres undefined) | 0.51 | 32.9 |
| O=C(CCCSc1nc(-c2ccc(Cl)cc2)cc(-c2ccc(Cl)cc2)n1)NO | 1.21 | 16.1 |
| Cn1cc(C2=C(c3cn(CCCN=C(N)N)c4ccccc34)C(=O)NC2=O)c2ccccc21 | > 23.1 | > 25 |
| C=C1C(=O)O[C@H]2[C@H]1CC/C(COC(=O)/C=C\C(=O)NCc1ccc(Cn3c(=O)sn(-c4ccc(C#N)cc4)c3=O)cc1)=C\CC[C@@]1(C)O[C@@H]21 | 0.611 | 1.44 |
| COc1ccc(C(=O)/C=C/c2cccnc2Nc2cc(OC)c(OC)c(OC)c2)cc1 | 1.53 | 10.1 |
| COc1ccc(C2CC(=O)c3c(OC)cc(OC)cc3O2)cc1 (centres undefined) | > 100 | > 100 |
| COc1ccc(-n2cc(-c3cc(OC)c(OC)c(OC)c3)[nH]c2=S)cc1OC | > 100 | > 100 |
| COc1ccc(-c2nc(-c3nc4ccc(C)cc4[nH]3)c3ccccn23)cc1 | 1.88 | 7.68 |
| Cc1c2c(nn1-c1ccc(S(=O)(=O)/N=C3\SCC(=O)N3C(=O)c3ccccc3)cc1)-c1ccccc1CC2 | 42.1 | > 100 |
| Cn1cc(C2=C(c3cn(C)c4c(N)cccc34)C(=O)NC2=O)c2ccccc21 | 1.37 | > 25 |
